In patent US6355799B1, “Substituted benzene compounds, process for their preparation, and herbicidal and defoliant compositions containing them” (ISK Americas Incorporated, priority 1997, dated 2002):

Columns and labels:
Assay type in all cases: in vivo
[1] = test system: barnyardgrass (Echinochloa crus-galli, ECHCG); assay: Post-emerge test, greenhouse herbicide activity screening; details: post-emerge, 14 days after application, rating scale 0-100
How it was run: (§1)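 Plants grown in 10 cm pots of sandy loam mix received acetone-dissolved compounds through a moving flat-fan nozzle. Doses ranged from 15 to 1000 g ai/ha. Pre-emerge pots were seeded one day earlier, post-emerge pots 8–21 days earlier. Fourteen days on, each pot was graded 0–100 for damage.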

[2] = test system: ivyleaf morningglory (Ipomoea hederacea, IPOHE); assay: as above; details: post-emerge, 14 days after application, rating scale 0-100
How it was run: as §1

[3] = test system: lambsquarters (Chenopodium album, CHEAL); assay: as above; details: post-emerge, 14 days after application, rating scale 0-100
How it was run: as §1

[4] = test system: redroot pigweed (Amaranthus retroflexus, AMARE); assay: as above; details: post-emerge, 14 days after application
How it was run: as §1

[5] = test system: green foxtail (Setaria viridis, SETVI); assay: as above; details: post-emerge, 14 days after application, rating scale 0-100
How it was run: as §1

[6] = test system: velvetleaf (Abutilon theophrasti, ABUTH); assay: as above; details: post-emerge, 14 days after application, rating scale 0-100
How it was run: as §1

[7] = test system: large crabgrass (Digitaria sanguinalis, DIGSA); assay: as above; details: post-emerge, 14 days after application, rating scale 0-100
How it was run: as §1

[8] = test system: johnsongrass (Sorghum halepense, SORHA); assay: as above; details: post-emerge, 14 days after application, rating scale 0-100
How it was run: as §1

[9] = test system: sicklepod (Cassia obtusifolia, CASOB); assay: as above; details: post-emerge, 14 days after application, rating scale 0-100
How it was run: as §1

[10] = test system: barnyardgrass (Echinochloa crus-galli, ECHCG); assay: Pre-emerge test, greenhouse herbicide activity screening; details: for phytotoxicity rating ECHCG: pre-emerge, 14 days after application, scale 0-100; for Pre-emerge Herbicidal Activity ECHCG: phytotoxicity rating 0-100, 14 days after application
How it was run: (§2)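 Visual ratings on a 0-100 scale (0 no damage, 100 all plants dead) were taken at 14 days after treatment. Rates of 15-1000 g ai/ha in acetone, 187 l/ha, were sprayed onto soil one day after planting (pre-emerge) or onto 2-3 leaf plants with 0.25% v/v surfactant (post-emerge).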

[11] = test system: ivyleaf morningglory (Ipomoea hederacea, IPOHE); assay: as above; details: for phytotoxicity rating IPOHE: pre-emerge, 14 days after application, scale 0-100; for Pre-emerge Herbicidal Activity IPOHE: phytotoxicity rating 0-100, 14 days after application
How it was run: as §2

[12] = test system: lambsquarters (Chenopodium album, CHEAL); assay: as above; details: for phytotoxicity rating CHEAL: pre-emerge, 14 days after application, scale 0-100; for Pre-emerge Herbicidal Activity CHEAL: phytotoxicity rating 0-100, 14 days after application
How it was run: as §2

[13] = test system: green foxtail (Setaria viridis, SETVI); assay: as above; details: for phytotoxicity rating SETVI: pre-emerge, 14 days after application, scale 0-100; for Pre-emerge Herbicidal Activity SETVI: phytotoxicity rating 0-100, 14 days after application
How it was run: as §2

[14] = test system: velvetleaf (Abutilon theophrasti, ABUTH); assay: as above; details: for phytotoxicity rating ABUTH: pre-emerge, 14 days after application, scale 0-100; for Pre-emerge Herbicidal Activity ABUTH: phytotoxicity rating 0-100, 14 days after application
How it was run: as §2

[15] = test system: common ragweed (Ambrosia artemisizfolia L., AMBEL); assay: as above; details: for phytotoxicity rating AMBEL: pre-emerge, 14 days after application, scale 0-100; for Pre-emerge Herbicidal Activity AMBEL: phytotoxicity rating 0-100, 14 days after application
How it was run: as §2

[16] = test system: large crabgrass (Digitaria sanguinalis, DIGSA); assay: as above; details: for phytotoxicity rating DIGSA: pre-emerge, 14 days after application, scale 0-100; for Pre-emerge Herbicidal Activity DIGSA: phytotoxicity rating 0-100, 14 days after application
How it was run: as §2

[17] = test system: johnsongrass (Sorghum halepense, SORHA); assay: as above; details: for phytotoxicity rating SORHA: pre-emerge, 14 days after application, scale 0-100; for Pre-emerge Herbicidal Activity SORHA: phytotoxicity rating 0-100, 14 days after application
How it was run: as §2

[18] = test system: sicklepod (Cassia obtusifolia, CASOB); assay: as above; details: for phytotoxicity rating CASOB: pre-emerge, 14 days after application, scale 0-100; for Pre-emerge Herbicidal Activity CASOB: phytotoxicity rating 0-100, 14 days after application
How it was run: as §2

[19] = test system: field corn (Zea mays L., var. Dekalb 535, CORN); assay: Pre-emerge test, crop safety; details: for phytotoxicity rating CORN (crop damage): pre-emerge, 14 days after application, scale 0-100; for Pre-emerge Herbicidal Activity CORN: crop damage rating 0-100, 14 days after application
How it was run: (§3)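 Compounds in acetone were track-sprayed at 15-1000 g ai/ha (187 l/ha) on sandy loam pots: pre-emerge one day after seeding, post-emerge at 2-3 leaf stage with 0.25% v/v non-ionic surfactant. Phytotoxicity was rated 14 days later on a 0 (no damage) to 100 (complete death) scale.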

[20] = test system: upland rice (Oryza sp., var. Tebonnet, RICE); assay: Pre-emerge test, crop safety; details: for phytotoxicity rating RICE (crop damage): pre-emerge, 14 days after application, scale 0-100; for Pre-emerge Herbicidal Activity RICE: crop damage rating 0-100, 14 days after application
How it was run: as §3

[21] = test system: field corn (Zea mays L., var. Dekalb 535, CORN); assay: Post-emerge test, crop safety; details: post-emerge, 14 days after application, rating scale 0-100
How it was run: as §2

[22] = test system: upland rice (Oryza sp., var. Tebonnet, RICE); assay: Post-emerge test, crop safety; details: post-emerge, 14 days after application, rating scale 0-100
How it was run: as §2

[23] = test system: redroot pigweed (Amaranthus retroflexus, AMARE); assay: Pre-emerge test, greenhouse herbicide activity screening; details: for phytotoxicity rating AMARE: pre-emerge, 14 days after application, scale 0-100; for Pre-emerge Herbicidal Activity AMARE: phytotoxicity rating 0-100, 14 days after application
How it was run: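 Herbicidal damage is scored 0 (none) to 100 (complete plant death) two weeks after a simulated field spray. Rates span 15–1000 g ai/ha, delivered in acetone at 187 l/ha. For post-emergence treatments, plants have 2–3 leaves and the spray carries 0.25% v/v non-ionic surfactant.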

[24] = 250 g ai/ha, rating scale 0-100

Cn1c(C(F)(F)F)cc(=O)n(-c2ccc(C(F)(F)F)cc2NC(=O)c2ccc3ccccc3c2)c1=O [2-149]
50: ECHCG phytotoxicity rating ([1]; 250 g ai/ha) | phytotoxicity rating ECHCG ([10]; 63 g ai/ha) | phytotoxicity rating SETVI ([13]; 63 g ai/ha) | phytotoxicity rating SORHA ([17]; 250 g ai/ha) | phytotoxicity rating CASOB ([18]; 250 g ai/ha) | phytotoxicity rating RICE (crop damage) ([20]; 250 g ai/ha)
100: ABUTH phytotoxicity rating ([6]; 63 g ai/ha) | ABUTH phytotoxicity rating ([6]; 250 g ai/ha) | phytotoxicity rating ECHCG ([10]; 250 g ai/ha) | phytotoxicity rating CHEAL ([12]; 63 g ai/ha) | phytotoxicity rating CHEAL ([12]; 250 g ai/ha) | phytotoxicity rating ABUTH ([14]; 250 g ai/ha) | phytotoxicity rating AMBEL ([15]; 250 g ai/ha) | phytotoxicity rating DIGSA ([16]; 250 g ai/ha) | phytotoxicity rating AMARE ([23]; 63 g ai/ha) | phytotoxicity rating AMARE ([23]; 250 g ai/ha)
20: ECHCG phytotoxicity rating ([1]; 63 g ai/ha) | SETVI phytotoxicity rating ([5]; 250 g ai/ha) | DIGSA phytotoxicity rating ([7]; 250 g ai/ha) | phytotoxicity rating CORN (crop damage) ([19]; 250 g ai/ha)
10: SETVI phytotoxicity rating ([5]; 63 g ai/ha) | RICE phytotoxicity rating (crop damage) ([22]; 250 g ai/ha)
80: AMARE phytotoxicity rating ([4]; 63 g ai/ha, rating scale 0-100) | AMARE phytotoxicity rating [4, 24]
30: phytotoxicity rating IPOHE ([11]; 63 g ai/ha) | phytotoxicity rating SORHA ([17]; 63 g ai/ha)
15: CORN phytotoxicity rating (crop damage) ([21]; 250 g ai/ha)
99: phytotoxicity rating ABUTH ([14]; 63 g ai/ha)
90: CHEAL phytotoxicity rating ([3]; 63 g ai/ha) | phytotoxicity rating SETVI ([13]; 250 g ai/ha) | phytotoxicity rating DIGSA ([16]; 63 g ai/ha)
95: IPOHE phytotoxicity rating ([2]; 250 g ai/ha) | CHEAL phytotoxicity rating ([3]; 250 g ai/ha) | CASOB phytotoxicity rating ([9]; 63 g ai/ha) | CASOB phytotoxicity rating ([9]; 250 g ai/ha)
70: IPOHE phytotoxicity rating ([2]; 63 g ai/ha) | phytotoxicity rating IPOHE ([11]; 250 g ai/ha)
0: DIGSA phytotoxicity rating ([7]; 63 g ai/ha) | SORHA phytotoxicity rating ([8]; 63 g ai/ha) | SORHA phytotoxicity rating ([8]; 250 g ai/ha) | phytotoxicity rating AMBEL ([15]; 63 g ai/ha) | phytotoxicity rating CASOB ([18]; 63 g ai/ha) | phytotoxicity rating CORN (crop damage) ([19]; 63 g ai/ha) | phytotoxicity rating RICE (crop damage) ([20]; 63 g ai/ha) | CORN phytotoxicity rating (crop damage) ([21]; 63 g ai/ha) | RICE phytotoxicity rating (crop damage) ([22]; 63 g ai/ha)

CCCCCC(=O)Nc1c(OC)c(Cl)cc(F)c1-n1c(=O)cc(C(F)(F)F)n(C)c1=O [2-198]
40: phytotoxicity rating CORN (crop damage) ([21]; 250 g ai/ha)
5: phytotoxicity rating ECHCG ([1]; 63 g ai/ha) | phytotoxicity rating ECHCG ([1]; 250 g ai/ha)
10: phytotoxicity rating SETVI ([5]; 63 g ai/ha) | phytotoxicity rating SETVI ([5]; 250 g ai/ha) | phytotoxicity rating DIGSA ([7]; 63 g ai/ha) | phytotoxicity rating DIGSA ([7]; 250 g ai/ha) | phytotoxicity rating CORN (crop damage) ([21]; 63 g ai/ha) | phytotoxicity rating RICE (crop damage) ([22]; 63 g ai/ha)
90: phytotoxicity rating CHEAL ([3]; 250 g ai/ha) | Pre-emerge Herbicidal Activity SETVI ([13]; 63 g ai/ha) | Pre-emerge Herbicidal Activity CORN ([19]; 250 g ai/ha)
80: phytotoxicity rating IPOHE ([2]; 63 g ai/ha) | phytotoxicity rating CHEAL ([3]; 63 g ai/ha) | phytotoxicity rating AMARE ([4]; 63 g ai/ha, rating scale 0-100 (0 no damage, 100 complete death)) | phytotoxicity rating ABUTH ([6]; 63 g ai/ha) | Pre-emerge Herbicidal Activity RICE ([20]; 250 g ai/ha)
0: phytotoxicity rating SORHA ([8]; 63 g ai/ha)
100: phytotoxicity rating IPOHE ([2]; 250 g ai/ha) | phytotoxicity rating ABUTH ([6]; 250 g ai/ha) | Pre-emerge Herbicidal Activity ECHCG ([10]; 250 g ai/ha) | Pre-emerge Herbicidal Activity IPOHE ([11]; 63 g ai/ha) | Pre-emerge Herbicidal Activity IPOHE ([11]; 250 g ai/ha) | Pre-emerge Herbicidal Activity CHEAL ([12]; 63 g ai/ha) | Pre-emerge Herbicidal Activity CHEAL ([12]; 250 g ai/ha) | Pre-emerge Herbicidal Activity SETVI ([13]; 250 g ai/ha) | Pre-emerge Herbicidal Activity ABUTH ([14]; 63 g ai/ha) | Pre-emerge Herbicidal Activity ABUTH ([14]; 250 g ai/ha) | Pre-emerge Herbicidal Activity AMBEL ([15]; 63 g ai/ha) | Pre-emerge Herbicidal Activity AMBEL ([15]; 250 g ai/ha) | Pre-emerge Herbicidal Activity DIGSA ([16]; 63 g ai/ha) | Pre-emerge Herbicidal Activity DIGSA ([16]; 250 g ai/ha) | Pre-emerge Herbicidal Activity CASOB ([18]; 250 g ai/ha) | Pre-emerge Herbicidal Activity AMARE ([23]; 63 g ai/ha) | Pre-emerge Herbicidal Activity AMARE ([23]; 250 g ai/ha)
95: phytotoxicity rating AMARE [4, 24]
30: phytotoxicity rating CASOB ([9]; 250 g ai/ha) | Pre-emerge Herbicidal Activity RICE ([20]; 63 g ai/ha) | phytotoxicity rating RICE (crop damage) ([22]; 250 g ai/ha)
50: phytotoxicity rating SORHA ([8]; 250 g ai/ha) | phytotoxicity rating CASOB ([9]; 63 g ai/ha) | Pre-emerge Herbicidal Activity ECHCG ([10]; 63 g ai/ha) | Pre-emerge Herbicidal Activity SORHA ([17]; 63 g ai/ha) | Pre-emerge Herbicidal Activity CASOB ([18]; 63 g ai/ha) | Pre-emerge Herbicidal Activity CORN ([19]; 63 g ai/ha)
99: Pre-emerge Herbicidal Activity SORHA ([17]; 250 g ai/ha)
